According to ChEMBL document CHEMBL4406843, “β-Amino acid derivatives as mitochondrial complex III inhibitors of L. donovani: A promising chemotype targeting visceral leishmaniasis” (Eur J Med Chem, 2019):
Activity calls are given as the source filed them. The rule behind the calls is not given here.

How the values were obtained:
[1] = Tmax in BALB/c mouse at 50 mg/kg, ip by HPLC analysis; type: ADME, organism-based; settings: in vivo
Leishmania donovani [2] = test: Antileishmanial activity against promastigote stage of Leishmania donovani MHOM/IN/80/Dd8 harboring luciferase reporter gene at 25 uM after 48 hrs by Steady-Glo luminescence assay relative to control; type: functional; settings: MHOM/IN/80/Dd8, 48 h
[3] = Toxicity in BALB/c mouse infected with Leishmania donovani promastigotes assessed as effect on body weight at 12.5 to 200 mg/kg, ip administered for 7 days starting at 15 days post-infection; type: organism-based; settings: in vivo
[4] = Half life in BALB/c mouse at 50 mg/kg, ip by HPLC analysis; type: ADME, organism-based; settings: in vivo
Leishmania donovani [5] = test: Induction of apoptosis in Leishmania donovani promastigotes assessed as necrotic cells at 50 uM after 48 hrs by Annexin-V/propidium iodide staining based flow cytometric method (reference value: 0.06%); type: functional
[6] = Cytotoxicity against African green monkey Vero cells assessed as cell viability at 100 uM by MTT assay relative to control; type: cell-based; settings: chlorocebus sabaeus, read-out: Activity
Leishmania donovani [7] = test: Induction of membrane depolarization in Leishmania donovani promastigotes assessed as increase in fluorescence at 50 uM by DiBAC4 dye based flow cytometry analysis relative to relative to 0.1% Triton X-100; type: functional
[8] = Elimination rate constant in BALB/c mouse at 50 mg/kg, ip by HPLC analysis; type: ADME, organism-based; settings: in vivo
Leishmania donovani [9] = test: (§1) Antileishmanial activity against Leishmania donovani promastigotes infected in BALB/c mouse assessed as reduction in parasite burden in spleen at 25 mg/kg, ip administered for 7 days starting at 15 days post-infection and measured after 1 week post last dose Giemsa staining-based assay relative to control; type: functional
[10] = Cytotoxicity against BALB/c mouse splenocytes assessed as cell viability at 100 uM after 72 hrs by MTT assay relative to control; type: cell-based, Splenocyte; settings: read-out: Activity
[11] = Stability in simulated gastric fluid at 10 ug/ml measured after 2 hrs by UPLC analysis relative to control; type: ADME; settings: read-out: Stability
Leishmania donovani [12] = test: Induction of mitochondrial dysfunction in Leishmania donovani promastigotes assessed as reduction in mitochondrial membrane potential at 50 uM after 12 hrs by JC-1 staining-based flow cytometric analysis (reference value: 7.73%); type: functional; set-up: scale not given: the % may be the effect or the level left
[13] = Clearance in BALB/c mouse at 50 mg/kg, ip by HPLC analysis; type: ADME, organism-based; settings: in vivo
Leishmania donovani [14] = test: Induction of mitochondrial dysfunction in Leishmania donovani promastigotes assessed as reduction in mitochondrial membrane potential at 50 uM after 6 hrs by JC-1 staining-based flow cytometric analysis (reference value: 7.73%); type: functional; set-up: scale not given: the % may be the effect or the level left
[15] = Cytotoxicity against African green monkey Vero cells assessed as cell viability up to 100 uM after 72 hrs by MTT assay relative to control; type: cell-based; settings: chlorocebus sabaeus, read-out: Activity
Leishmania donovani [16] = test: as §1, with “inhibition” for “reduction”, “200” for “25”; type: functional
Leishmania donovani [17] = test: Antileishmanial activity against promastigote stage of Leishmania donovani MHOM/IN/80/Dd8 harboring luciferase reporter gene at 50 uM after 48 hrs by Steady-Glo luminescence assay relative to control; type: functional; settings: MHOM/IN/80/Dd8, 48 h
Mus musculus = test: Immunostimulatory activity in BALB/c mouse infected with Leishmania donovani promastigotes assessed as induction of IL-2 cytokine production at 50 mg/kg administered for 5 days starting at 15 days post infection and measured after 3 to 7 weeks by ELISA; type: functional, organism-based
Leishmania donovani [18] = test: as §1, with “inhibition” for “reduction”, “liver” for “spleen”, “100” for “25”; type: functional
Leishmania donovani [19] = test: Antileishmanial activity against Leishmania donovani MHOM/IN/80/Dd8 promastigotes harboring luciferase reporter gene assessed as reduction in parasite viability after 48 hrs by MTT assay; type: functional, organism-based; settings: MHOM/IN/80/Dd8, 48 h
[20] = Intrinsic clearance in mouse liver microsomes after 1 hr in presence of NADPH by UPLC analysis; type: ADME, Microsome
[21] = Toxicity in golden hamster infected with Leishmania donovani amastigotes assessed as effect on survival at 12.5 to 200 mg/kg, ip administered on alternative days for 4 weeks starting at 4 weeks post-infection; type: organism-based, Mesocricetus auratus; settings: in vivo, 672 h
J774 [22] = test: Immunostimulatory activity in mouse J774 cells infected with Leishmania donovani promastigotes assessed as reduction in IL-10 cytokine production at 50 uM after 48 hrs by ELISA; type: functional, cell-based
Leishmania donovani [23] = test: Inhibition of ubiquinol cytochrome c reductase in Leishmania donovani promastigotes mitochondria at 50 uM using decylubiquinol as substrate in presence of cytochrome c relative to control
Leishmania donovani [24] = test: as §1, with “inhibition” for “reduction”, “liver” for “spleen”, “50” for “25”; type: functional
[25] = Cytotoxicity against African green monkey Vero cells assessed as reduction in cell viability after 72 hrs by MTT assay; type: cell-based; settings: chlorocebus sabaeus
Leishmania donovani [26] = test: Antileishmanial activity against Leishmania donovani MHOM/IN/80/Dd8 amastigotes harboring luciferase reporter gene infected in mouse J774 cells after 48 hrs by Giemsa staining-based microscopic assay; type: functional, organism-based; settings: MHOM/IN/80/Dd8, J774, 48 h
Leishmania donovani [27] = test: Induction of mitochondrial membrane depolarization in Leishmania donovani promastigotes assessed as disruption of cristae at 50 uM after 24 hrs by TEM analysis; type: functional, organism-based
Leishmania donovani [28] = test: Antileishmanial activity against Leishmania donovani amastigotes infected in golden hamster assessed as reduction in parasite burden in spleen at 50 mg/kg, ip administered on alternative days for 4 weeks starting at 4 weeks post-infection and measured after 2 week post last dose Giemsa staining-based assay relative to control; type: functional
J774 [29] = test: Immunostimulatory activity in mouse J774 cells infected with Leishmania donovani promastigotes assessed as reduction in TGF-beta cytokine production at 50 uM after 48 hrs by ELISA; type: functional, cell-based
Leishmania donovani [30] = test: Induction of mitochondrial dysfunction in Leishmania donovani promastigotes assessed as reduction in mitochondrial membrane potential at 50 uM after 3 hrs by JC-1 staining-based flow cytometric analysis (reference value: 7.73%); type: functional; set-up: scale not given: the % may be the effect or the level left
Leishmania donovani [31] = test: Induction of membrane depolarization in Leishmania donovani promastigotes assessed as increase in fluorescence at IC50 by DiBAC4 dye based flow cytometry analysis; type: functional, organism-based; settings: TDE = time-dependent effect
Leishmania donovani [32] = test: Induction of bio-energetic collapse in Leishmania donovani promastigotes assessed as reduction in ATP level at 50 uM after 48 hrs by bioluminescence based method relative to control; type: functional; set-up: scale not given: the % may be the effect or the level left
Leishmania donovani [33] = test: Induction of apoptosis in Leishmania donovani promastigotes assessed as late apoptotic cells at 50 uM after 24 hrs by Annexin-V/propidium iodide staining based flow cytometric method (reference value: 0.59%); type: functional
Leishmania donovani [34] = test: Inhibition of ubiquinol cytochrome c reductase in Leishmania donovani promastigotes mitochondria at 8.1 to 50 uM using decylubiquinol as substrate in presence of cytochrome c
Leishmania donovani [35] = test: Induction of mitochondrial membrane depolarization in Leishmania donovani promastigotes assessed as distorted mitochondria at 50 uM after 24 hrs by TEM analysis; type: functional, organism-based
Leishmania donovani [36] = test: Induction of mitochondrial membrane depolarization in Leishmania donovani promastigotes assessed as swelling of mitochondria at 50 uM after 24 hrs by TEM analysis; type: functional, organism-based
Leishmania donovani [37] = test: Induction of ROS generation in Leishmania donovani promastigotes at 50 uM after 3 hrs by H2DCFDA probe based flow cytometry (reference value: 1.97%); type: functional

CCOC(=O)C(C(=O)c1ccc(OC)cc1)C(NC(C)=O)c1cccc2ccccc12 (stereo not drawn)
Tmax [1]: 0.25 h | inhibition at 25 µM (Leishmania donovani [2]): 85.3% | Activity [3]: Non-Toxic | half-life [4]: 5.11 h | Activity (Leishmania donovani [5]): 0.11% | viability at 100 µM [6]: 95.5% | Activity (Leishmania donovani [7]): <=78.5% | k el [8]: 3.89e-05 s⁻¹ | inhibition in vivo at 25 mg/kg (Leishmania donovani [9]): 68.5% | viability at 72 h, 100 µM [10]: > 90.2% | remaining at 2 h, 10 ug/ml [11]: 81.9% | Activity (Leishmania donovani [12]): 37.26% | CL/F [13]: 664 mL/min/kg | Activity (Leishmania donovani [14]): 19.52% | viability at 72 h [15]: > 93% | inhibition in vivo at 200 mg/kg (Leishmania donovani [16]): 93.1% | inhibition at 50 µM (Leishmania donovani [17]): 96.6% | Activity (Mus musculus): inactive | inhibition in vivo at 100 mg/kg (Leishmania donovani [18]): 92.1% | IC50 (Leishmania donovani [19]): 9.1 µM | CLH [20]: 15 µL/min/mg | Activity [21]: Non-Toxic | Activity (J774 [22]): inactive | inhibition (Leishmania donovani [23]): > 49% | inhibition in vivo at 50 mg/kg (Leishmania donovani [24]): 91.5% | CC50 at 72 h [25]: > 350 µM | IC50 (Leishmania donovani [26]): 16.9 µM | Activity (Leishmania donovani [27]): Active | inhibition in vivo at 50 mg/kg (Leishmania donovani [28]): 90.4% | Activity (J774 [29]): inactive | Activity (Leishmania donovani [30]): 8.62% | Activity (Leishmania donovani [31]): Tde | Activity (Leishmania donovani [32]): >67% | Activity (Leishmania donovani [33]): 0.8% | inhibition (Leishmania donovani [34]): Active | Activity (Leishmania donovani [35]): Active | Activity (Leishmania donovani [36]): Active | Activity (Leishmania donovani [37]): 7.49%
